Data: US4591552A, “Detection of hepatitis B surface antigen (or antibody to same) with labeled synthetic peptide” (priority 1982, dated 1986)

System: antiserum to the synthetic peptide
Test: Competition immunoassay: binding to Staphylococci (protein A) of β-galactosidase-conjugated peptide 135-155 complexed with homologous antibodies
Parameters: species or system rabbit
Conditions: control antigens
Protocol: It is known that immunoglobulins of the IgG class attach to Staphylococci carrying protein A. If the immunoglobulins are bound to labeled antigens thus forming immune complexes, such (labeled) complexes attach to the Staphylococci. […] The above forms the basis of the following test:
250 μl of mixtures containing various unlabeled antigens, 1:125 diluted antiserum to the synthetic peptide (see Example 3 above), 1:8,000 diluted peptide-β-galactosidase conjugate (see Example 2 above) and 50 mg/ml of bovine serum albumin (BSA) were each incubated for 30 minutes at 37° C. and mixed with an equal volume of a 2.5% suspension of Staphylococci (Pansorbin, Calbiochem, LaJolla, Calif.). The bacteria were pelleted, washed with tris-buffered saline, and the adsorbed β-galactosidase corresponding to the enzyme-peptide conjugate was determined fluorometrically as described by Neurrath and Strick, J. Virol. Methods, supra. The fluorescence in the absence of unlabeled competing antigens was 900.

Substance: synthetic insulin A chain: control antigen
- inhibitory effect on binding of β-galactosidase activity to the bacteria: did not have any inhibitory effect
